According to US12522594B2, “2-heteroaryl-3-oxo-2,3-dihydropyridazine-4-carboxamides for the treatment of cancer” (Deutsches Krebsforschungszentrum, priority 2017, dated 2026):
pIC50: −log10 of the molar value.

Tests used:
AHR [1] = target: T1, AHR (Homo sapiens, UniProt P35869); experiment: In vitro assay 1: antagonism in human cell line (transactivation assay, U87 cells prestimulated with kynurenic acid, DRE firefly luciferase reporter); type: cell-based; design: host or cells: U87 glioblastoma cells, stably transfected with DRE firefly luciferase and renilla reporter constructs; details: 150 uM kynurenic acid, 20 hours, read-out: Assay 1: AHR-luc Hum Antagonism IC50
T1 sequence (P35869 11-848): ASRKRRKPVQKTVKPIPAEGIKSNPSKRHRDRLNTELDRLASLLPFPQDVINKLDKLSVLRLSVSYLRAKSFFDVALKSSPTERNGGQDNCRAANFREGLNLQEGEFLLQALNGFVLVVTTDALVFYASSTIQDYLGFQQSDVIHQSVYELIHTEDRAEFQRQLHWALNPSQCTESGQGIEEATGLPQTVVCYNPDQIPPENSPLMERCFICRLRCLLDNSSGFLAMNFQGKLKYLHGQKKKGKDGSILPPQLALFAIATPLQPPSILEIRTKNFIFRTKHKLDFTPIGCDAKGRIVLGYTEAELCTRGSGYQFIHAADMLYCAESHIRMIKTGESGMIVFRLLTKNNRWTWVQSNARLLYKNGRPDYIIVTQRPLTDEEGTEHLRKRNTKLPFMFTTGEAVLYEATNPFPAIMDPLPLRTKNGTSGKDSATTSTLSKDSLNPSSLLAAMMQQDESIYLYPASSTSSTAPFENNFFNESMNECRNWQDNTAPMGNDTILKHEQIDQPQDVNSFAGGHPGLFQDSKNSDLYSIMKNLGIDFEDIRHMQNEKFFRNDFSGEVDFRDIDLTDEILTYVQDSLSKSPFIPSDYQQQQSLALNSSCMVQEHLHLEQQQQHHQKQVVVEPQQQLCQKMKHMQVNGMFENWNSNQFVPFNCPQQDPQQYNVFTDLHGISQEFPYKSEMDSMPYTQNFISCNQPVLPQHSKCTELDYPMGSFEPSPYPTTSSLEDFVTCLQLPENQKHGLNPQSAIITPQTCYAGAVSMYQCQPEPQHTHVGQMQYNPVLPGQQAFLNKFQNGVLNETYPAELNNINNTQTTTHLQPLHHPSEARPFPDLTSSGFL
Summary of the method: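 Antagonism measured after kynurenic acid prestimulation in U87 cells that express AHR endogenously and stably harbor a firefly luciferase gene under DRE control plus a constitutive renilla construct. Positive and negative controls served for normalization.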

AHR [2] = target: T1, AHR; experiment: In vitro assay 2: agonism in human cell line (transactivation assay, U87 cells, DRE firefly luciferase reporter); type: cell-based; design: host or cells: U87 glioblastoma cells, stably transfected with DRE firefly luciferase and renilla reporter constructs; details: no kynurenic acid, 20 hours, read-out: Assay 2: AHR-luc Hum Agonism IC50
Summary of the method: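 Agonist readout: DRE firefly luciferase, with constitutive renilla reporter, in stably transfected U87 cells expressing AHR endogenously. Normalization used positive control (300 uM kynurenic acid) and negative control.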

| SMILES | pIC50 (AHR [1]) | pIC50 (AHR [2]) |
| --- | --- | --- |
| CC(C)(O)CNC(=O)c1cc(-c2ccc(Cl)cc2)nn(-c2cncnc2)c1=O [Example 277, 6-(4-Chlorophenyl)-N-(2-hydroxy-2-methylpropyl)-3-oxo-2-(pyrimidin-5-yl)-2,3-dihydropyridazine-4-carboxamide] | 6.86 | < 4.70 |
| CC(C)(O)CNC(=O)c1cc(-c2ccc(Cl)cc2)nn(-c2cnn(C(F)F)c2)c1=O [Example 278, 6-(4-Chlorophenyl)-2-[1-(difluoromethyl)-1H-pyrazol-4-yl]-N-(2-hydroxy-2-methylpropyl)-3-oxo-2,3-dihydropyridazine-4-carboxamide] | 6.85 | < 4.70 |
| C[C@H](CO)NC(=O)c1cc(-c2ccc(Cl)cc2)nn(-c2cncnc2)c1=O [Example 279, 6-(4-Chlorophenyl)-N-[(2R)-1-hydroxypropan-2-yl]-3-oxo-2-(pyrimidin-5-yl)-2,3-dihydropyridazine-4-carboxamide] | 6.77 | < 4.70 |
| O=C(NC[C@H](O)C(F)(F)F)c1cc(-c2ccc(CF)cc2)nn(-c2cccnc2)c1=O [Example 280, 6-[4-(Fluoromethyl)phenyl]-3-oxo-2-(pyridin-3-yl)-N-[(2S)-3,3,3-trifluoro-2-hydroxypropyl]-2,3-dihydropyridazine-4-carboxamide] | 6.75 | < 4.70 |
| O=C(N[C@H](CO)C(F)(F)F)c1cc(-c2ccc(CF)cc2)nn(-c2cccnc2)c1=O [Example 282, 6-[4-(Fluoromethyl)phenyl]-3-oxo-2-(pyridin-3-yl)-N-[(2R)-1,1,1-trifluoro-3-hydroxypropan-2-yl]-2,3-dihydropyridazine-4-carboxamide] | 6.52 | < 4.70 |
| Cn1cc(-n2nc(-c3ccc(CF)cc3)cc(C(=O)NC[C@H](O)C(F)(F)F)c2=O)cn1 [Example 283, 6-[4-(Fluoromethyl)phenyl]-2-(1-methyl-1H-pyrazol-4-yl)-3-oxo-N-[(2S)-3,3,3-trifluoro-2-hydroxypropyl]-2,3-dihydropyridazine-4-carboxamide] | 6.37 | < 4.70 |
| C[C@H](NC(=O)c1cc(-c2ccc(CF)cc2)nn(-c2cnn(C)c2)c1=O)C(C)(C)O [Example 284, 6-[4-(Fluoromethyl)phenyl]-N-[(2S)-3-hydroxy-3-methylbutan-2-yl]-2-(1-methyl-1H-pyrazol-4-yl)-3-oxo-2,3-dihydropyridazine-4-carboxamide] | 6.24 | < 4.70 |
| C[C@@H](CO)NC(=O)c1cc(-c2ccc(CF)cc2)nn(-c2cccnc2)c1=O [Example 285, 6-[4-(Fluoromethyl)phenyl]-N-[(2S)-1-hydroxypropan-2-yl]-3-oxo-2-(pyridin-3-yl)-2,3-dihydropyridazine-4-carboxamide] | 6.22 | < 4.70 |
| CC(C)(O)CNC(=O)c1cc(-c2ccc(CF)cc2)nn(-c2cccnc2)c1=O [Example 286, 6-[4-(Fluoromethyl)phenyl]-N-(2-hydroxy-2-methylpropyl)-3-oxo-2-(pyridin-3-yl)-2,3-dihydropyridazine-4-carboxamide] | 6.17 | < 4.70 |
| C[C@@H](CO)NC(=O)c1cc(-c2ccc(CF)cc2)nn(-c2cnn(C)c2)c1=O [Example 287, 6-[4-(Fluoromethyl)phenyl]-N-[(2S)-1-hydroxypropan-2-yl]-2-(1-methyl-1H-pyrazol-4-yl)-3-oxo-2,3-dihydropyridazine-4-carboxamide] | 6.14 | < 4.70 |
| C[C@H](NC(=O)c1cc(-c2ccc(CF)cc2)nn(-c2cccnc2)c1=O)C(C)(C)O [Example 288, 6-[4-(Fluoromethyl)phenyl]-N-[(2S)-3-hydroxy-3-methylbutan-2-yl]-3-oxo-2-(pyridin-3-yl)-2,3-dihydropyridazine-4-carboxamide] | 6.09 | < 4.70 |
| Cn1cc(-n2nc(-c3ccc(Cl)cc3)cc(C(=O)N[C@H](CO)C(N)=O)c2=O)cn1 [Example 289, N-[(2R)-1-Amino-3-hydroxy-1-oxopropan-2-yl]-6-(4-chlorophenyl)-2-(1-methyl-1H-pyrazol-4-yl)-3-oxo-2,3-dihydropyridazine-4-carboxamide] | 6.06 | < 4.70 |
| C[C@@H](CO)NC(=O)c1cc(-c2ccc(Cl)cc2)nn(-c2cncc(Cl)c2)c1=O [Example 303, 6-(4-Chlorophenyl)-2-(5-chloropyridin-3-yl)-N-[(2S)-1-hydroxypropan-2-yl]-3-oxo-2,3-dihydropyridazine-4-carboxamide] | 6.88 | < 4.70 |
| Cc1cncc(-n2nc(-c3ccc(Cl)cc3)cc(C(=O)N[C@@H](C)CO)c2=O)c1 [Example 304, 6-(4-Chlorophenyl)-N-[(2S)-1-hydroxypropan-2-yl]-2-(5-methylpyridin-3-yl)-3-oxo-2,3-dihydropyridazine-4-carboxamide] | 6.46 | < 4.70 |

The remaining lines, values ahead:

| pIC50 (AHR [1]) | pIC50 (AHR [2]) | SMILES |
| --- | --- | --- |
| 7.04 | < 4.70 | C[C@@H](CO)NC(=O)c1cc(-c2ccc(Cl)cc2)nn(-c2cnn(C(F)F)c2)c1=O [Example 272, 6-(4-Chlorophenyl)-2-[1-(difluoromethyl)-1H-pyrazol-4-yl]-N-[(2S)-1-hydroxypropan-2-yl]-3-oxo-2,3-dihydropyridazine-4-carboxamide] |
| 7.00 | < 4.70 | O=C(N[C@H](CO)C1CC1)c1cc(-c2ccc(Cl)cc2)nn(-c2cncnc2)c1=O [Example 273, 6-(4-Chlorophenyl)-N-[(1S)-1-cyclopropyl-2-hydroxyethyl]-3-oxo-2-(pyrimidin-5-yl)-2,3-dihydropyridazine-4-carboxamide] |
| 6.95 | < 4.70 | COC(=O)[C@@H](CO)NC(=O)c1cc(-c2ccc(Cl)cc2)nn(-c2cccnc2)c1=O [Example 274, Methyl N-{[6-(4-chlorophenyl)-3-oxo-2-(pyridin-3-yl)-2,3-dihydropyridazine-4-yl]carbonyl}-D-serinate] |
| 6.89 | < 4.70 | Cn1cc(-n2nc(-c3ccc(CF)cc3)cc(C(=O)N[C@H](CO)C(F)(F)F)c2=O)cn1 [Example 275, 6-[4-(Fluoromethyl)phenyl]-2-(1-methyl-1H-pyrazol-4-yl)-3-oxo-N-[(2R)-1,1,1-trifluoro-3-hydroxypropan-2-yl]-2,3-dihydropyridazine-4-carboxamide] |
| 6.88 | < 4.70 | C[C@H](NC(=O)c1cc(-c2ccc(Cl)cc2)nn(-c2cn[nH]c2)c1=O)C(C)(C)O [Example 276, 6-(4-Chlorophenyl)-N-[(2S)-3-hydroxy-3-methylbutan-2-yl]-3-oxo-2-(1H-pyrazol-4-yl)-2,3-dihydropyridazine-4-carboxamide] |
| 7.09 | < 4.70 | O=C(NC[C@@H](O)C(F)(F)F)c1cc(-c2ccc(OC(F)(F)F)cc2)nn(-c2cccnc2)c1=O [Example 293, 3-Oxo-2-(pyridin-3-yl)-N-[(2R)-3,3,3-trifluoro-2-hydroxypropyl]-6-[4-(trifluoromethoxy)phenyl]-2,3-dihydropyridazine-4-carboxamide] |
| 7.30 | < 4.70 | C[C@@H](NC(=O)c1cc(-c2ccc(OC(F)(F)F)cc2)nn(-c2cccnc2)c1=O)C(C)(C)O [Example 294, N-[(2R)-3-Hydroxy-3-methylbutan-2-yl]-3-oxo-2-(pyridin-3-yl)-6-[4-(trifluoromethoxy)phenyl]-2,3-dihydropyridazine-4-carboxamide] |
| 6.93 | < 4.70 | O=C(NC[C@H](O)CF)c1cc(-c2ccc(OC(F)(F)F)cc2)nn(-c2cccnc2)c1=O [Example 296, N-[(2S)-3-Fluoro-2-hydroxypropyl]-3-oxo-2-(pyridin-3-yl)-6-[4-(trifluoromethoxy)phenyl]-2,3-dihydropyridazine-4-carboxamide] |
| 7.09 | < 4.70 | C[C@@H](NC(=O)c1cc(-c2ccc(Cl)cc2)nn(-c2cccnc2)c1=O)C(C)(C)O [Example 302, 6-(4-Chlorophenyl)-N-[(2R)-3-hydroxy-3-methylbutan-2-yl]-3-oxo-2-(pyridin-3-yl)-2,3-dihydropyridazine-4-carboxamide] |
| 8.79 | < 4.70 | Cn1cc(-n2nc(-c3ccc(OC(F)F)cc3)cc(C(=O)NC(C(C)(C)O)C(F)(F)F)c2=O)cn1 (stereo not drawn) [Example 305, 6-[4-(Difluoromethoxy)phenyl]-2-(1-methyl-1H-pyrazol-4-yl)-3-oxo-N-(1,1,1-trifluoro-3-hydroxy-3-methylbutan-2-yl)-2,3-dihydropyridazine-4-carboxamide] |
